The source of these data is US20090068161A1, “USE OF A COMBINATION OF HESPERIDIN AND OF A MICROORGANISM FOR INFLUENCING THE BARRIER FUNCTION OF THE SKIN” (L'OREAL, priority 2007, published 2009).

Each structure is given as a SMILES string.

The experiment concerns Episkin® model (reconstituted skin). The experiment can be described thus: Barrier function of reconstituted skin (Episkin® model): penetration of a nonpenetrating reference compound (cationic anthraquinone). The experiment is classed as cell-based. The conditions noted are these: condition E: Episkin® treated from D6 to D13 with 10 μM Hes7Glu; dye 1 mM applied for 4 hours. From the text: The conversion of a nutritional agent (hereinafter known as probiotic conditioned medium) after ingestion is first of all stimulated, for the purpose of resulting use directly on a skin model (stage A).
The medium of the cocultures stimulated with Lactobacillus paracasei, resulting from the basolateral compartment, is subsequently withdrawn and its effects, in combination with the most important metabolite of hesperidin, hesperitin-7 glucuronide (Hes7Glu), on the barrier function in the Episkin® model are subsequently tested in vitro (stage B).
A—Preparation of the Probiotic Conditioned Medium
An intestinal barrier model (comprising human enterocyte lines (Caco-2) co-cultured with human leukocytes in a “transwell” cell co-culture system [Haller D, 2000]) has been developed. […]
The receiving liquid (RL) is collected and then assayed directly at the end of application by HPLC. Each point is analysed in duplicate. […]
The concentration is determined using a calibration range produced on the same day. The degrees of penetration are calculated from the ratio of the amount in the RL to the amount applied, the following results having in addition formed the subject of a statistical study using the Wilcoxon tests.

On to `COc1ccc([C@@H]2CC(=O)c3c(O)cc(O[C@@H]4O[C@H](C(=O)O)[C@@H](O)[C@H](O)[C@H]4O)cc3O2)cc1O` [Hes7Glu, hesperitin-7 glucuronide], for which the “effect on the barrier function (degree of penetration of the cationic anthraquinone)” value is “no significant effect”.
